Assay results as given in the OligoGym collection.
These antisense oligonucleotides have a phosphorothioate backbone; sugars and methylation of C are not fully specified.

Experiments:
Conditions in all cases: ASO
[1] = biological target: GNAI3
[2] = biological target: RELA
[3] = biological target: BIRC5
[4] = biological target: CTNNB1
Note: test concentration or dose not given here.

AATGATTGAAGTTTCTGT
remaining target (mRNA or protein) (fraction of control) [1]: 0.73

TTAAGGAAGAGAATGATT
remaining target (mRNA or protein) (fraction of control) [1]: ≥ 1

TAAAGTTATTCTTCTCTT
remaining target (mRNA or protein) (fraction of control) [1]: 0.88

GCTCAGGGATGACGTAAA
remaining target (mRNA or protein) (fraction of control) [2]: 0.45

ATCTTGCTTCGCTCCACT
remaining target (mRNA or protein) (fraction of control) [1]: 0.63

CCTCTGCCAACGGGTCCC
remaining target (mRNA or protein) (fraction of control) [3]: 0.96

TCCAGCTCCTTGAAGCAG
remaining target (mRNA or protein) (fraction of control) [3]: 0.68

GCCGGTGAGGAGGGTCCT
remaining target (mRNA or protein) (fraction of control) [2]: 0.71

AGCTTGAGTAGCCATTGTCC
remaining target (mRNA or protein) (fraction of control) [4]: 0.34

TGTGCTATTCTGTGAATT
remaining target (mRNA or protein) (fraction of control) [3]: 0.8

AATGTAGTTAGACTGGGA
remaining target (mRNA or protein) (fraction of control) [1]: 0.46

CATCTTGCTGAGTTGGAA
remaining target (mRNA or protein) (fraction of control) [1]: 0.34

TCACTAGGCGAGTTATAG
remaining target (mRNA or protein) (fraction of control) [2]: 0.53

ACCAAGCATTTTCACCAGGG
remaining target (mRNA or protein) (fraction of control) [4]: 0.4

CATTGTCCACGCTGGATTTT
remaining target (mRNA or protein) (fraction of control) [4]: 0.72

TCTTATTGTTGGTTTCCT
remaining target (mRNA or protein) (fraction of control) [3]: ≥ 1

CCCATAGGAAACTCAGCTTG
remaining target (mRNA or protein) (fraction of control) [4]: 0.29

TAAAGAGTGCTAAGATTC
remaining target (mRNA or protein) (fraction of control) [1]: 0.72

CAATCTTTAGCCGTCCCA
remaining target (mRNA or protein) (fraction of control) [1]: 0.49

CTTGAGTAGCCATTGTCCAC
remaining target (mRNA or protein) (fraction of control) [4]: ≥ 1

TACGCCAGACTTCAGCCC
remaining target (mRNA or protein) (fraction of control) [3]: 0.99

TCAACTTCACATCTTCCA
remaining target (mRNA or protein) (fraction of control) [1]: 0.62

TAACGGACTCCTCTTTAT
remaining target (mRNA or protein) (fraction of control) [1]: 0.25

ACCTGGAAGCAGAGCCGC
remaining target (mRNA or protein) (fraction of control) [2]: 0.31

TGTATCTGGCAGGTACTG
remaining target (mRNA or protein) (fraction of control) [2]: ≥ 1

CCTCTCAGCAACTCTACAGG
remaining target (mRNA or protein) (fraction of control) [4]: 0.24

AAGGTGTCTGGTCTCAAC
remaining target (mRNA or protein) (fraction of control) [1]: 0.56

TCTGGAAACTGTGGATGC
remaining target (mRNA or protein) (fraction of control) [2]: ≥ 1

ATGCGTCGAGGTGGAGGC
remaining target (mRNA or protein) (fraction of control) [2]: 0.6

AGAGCCGCACAGCATTCA
remaining target (mRNA or protein) (fraction of control) [2]: 0.46

TTGCTGCCAGTGACTAACAG
remaining target (mRNA or protein) (fraction of control) [4]: 0.46

TAGCCATTGATCTTGATG
remaining target (mRNA or protein) (fraction of control) [2]: 0.78

CCACCATCTCGCCATAAC
remaining target (mRNA or protein) (fraction of control) [1]: 0.77

TCACACACTGGATTCCCA
remaining target (mRNA or protein) (fraction of control) [2]: 0.81

GCAGTCCTTTCCTACAAG
remaining target (mRNA or protein) (fraction of control) [2]: 0.95

GTGTTTCTACAATGCCTG
remaining target (mRNA or protein) (fraction of control) [1]: 0.37

AGGTCATAATCACTGAGG
remaining target (mRNA or protein) (fraction of control) [1]: 0.75

ACACTGTAGTAACTTTCA
remaining target (mRNA or protein) (fraction of control) [1]: 0.6

GCACATCAGCTTGCGAAA
remaining target (mRNA or protein) (fraction of control) [2]: ≥ 1

TGCCCAGAAGGAAACACC
remaining target (mRNA or protein) (fraction of control) [2]: 0.66

CTCATAGAAGCCATCCCG
remaining target (mRNA or protein) (fraction of control) [2]: 0.69

AGAAAATCCCTGTTCCCACT
remaining target (mRNA or protein) (fraction of control) [4]: 0.32

CGTAGTCCCCACGCTGCT
remaining target (mRNA or protein) (fraction of control) [2]: 0.29

GACGAGCCATTCGCCGGA
remaining target (mRNA or protein) (fraction of control) [2]: 0.52

AAGTTCCCTAATACAAAA
remaining target (mRNA or protein) (fraction of control) [1]: 0.85

AGAGAATGATTGAAGTTT
remaining target (mRNA or protein) (fraction of control) [1]: 0.99

CTGTCAGAGGAGCTGTGGCT
remaining target (mRNA or protein) (fraction of control) [4]: 0.64

GTTGTATGGTATACTTCAAA
remaining target (mRNA or protein) (fraction of control) [4]: 0.69

TCAGCTTGAGTAGCCATTGT
remaining target (mRNA or protein) (fraction of control) [4]: 0.31

GGTATCTTTTCTTCTGTT
remaining target (mRNA or protein) (fraction of control) [1]: 0.48

GGATGCGCTGACTGATAG
remaining target (mRNA or protein) (fraction of control) [2]: 0.31

GATCTGACTCAGCAGGGC
remaining target (mRNA or protein) (fraction of control) [2]: 0.27

CCTGGTCCTGTGTAGCCA
remaining target (mRNA or protein) (fraction of control) [2]: 0.78

TCACTCTCGTCCGAAGAA
remaining target (mRNA or protein) (fraction of control) [1]: 0.41

AAACTGTGTAGATGGGATCT
remaining target (mRNA or protein) (fraction of control) [4]: 0.57

TGTCCTTTTACGTTTCTC
remaining target (mRNA or protein) (fraction of control) [2]: 0.74

ATGAGGAAGGACAGGCGG
remaining target (mRNA or protein) (fraction of control) [2]: ≥ 1

AGCAGACACCATCTGAGGAG
remaining target (mRNA or protein) (fraction of control) [4]: 0.3

AGCCTGGTCCCGTGAAAT
remaining target (mRNA or protein) (fraction of control) [2]: 0.5

TTAAGAAATCCAAGTGAT
remaining target (mRNA or protein) (fraction of control) [1]: ≥ 1

TAGAGTGATTATGAATTAAT
remaining target (mRNA or protein) (fraction of control) [4]: 0.7

GTCCTGAGCAAGTTCACAGA
remaining target (mRNA or protein) (fraction of control) [4]: 0.37

CCTCTGATAACAATTCGGTT
remaining target (mRNA or protein) (fraction of control) [4]: 0.52

TTGGTGGTATCTGTGCTC
remaining target (mRNA or protein) (fraction of control) [2]: 0.53

GCCATTGTCCACGCTGGATT
remaining target (mRNA or protein) (fraction of control) [4]: ≥ 1

GTCTGACTTTAGCATCTC
remaining target (mRNA or protein) (fraction of control) [1]: 0.56

AGGTCCCAGCGGTACAACGA
remaining target (mRNA or protein) (fraction of control) [4]: 0.21

TGGTCTTCACTCTCGTCC
remaining target (mRNA or protein) (fraction of control) [1]: 0.21

CAATGTCCTCTTTCTGCA
remaining target (mRNA or protein) (fraction of control) [2]: 0.78
